Measured values: patent US5103007A, “Lipids” (Takeda Chemical Industries, Ltd., priority 1988, dated 1992)
Values after ≈ are worked out from the molar mass of the structure shown.

Tests used:
[1] = Acute toxicity in CDF-1 female mice; format: in vivo
Protocol: Acute toxicity of Compounds of Examples
CDF-1 female mice (5-week old: a group of consisting of 5 mice) were given once intraperitoneally 0.2 ml of a physiological saline solution of a compound of Example.

[2] = system: human colon adenocarcinoma (colon 205 cells); experiment: Inhibition of multiplication of human colon adenocarcinoma (colon 205 cells), MTT assay; format: cell-based; conditions: 72 hours
Protocol: (§1) The effect (IC50) of the compounds obtained by Examples in inhibiting multiplication of human nasopharynx cancer (KB cells) and human colon adenocarcinoma (colon 205 cells) Each well of a 96-well microtiter plate was inoculated with 0.1 ml of human nasopharynx cancer (KB cells) (1×10^4 /ml) or human colon adenocarcinoma (colon 205 cells) (2×10^4 /ml), which was then subjected to cultivation by allowing to stand at 37° C. for 24 hours in 5% CO2. To the culture was added a 10% MEM solution (manufactured by Nissui Seiyaku or RPMI-1640), and cultivation was continued at 37° C. for 72 hours in 5% CO2. Then, the culture solution was removed with a micro-pipette. […] Incubation was conducted at 37° C for 4 hours, to which was then added 0.1 ml of a 10% SDS (Wako Pure Chemical Industries, Ltd.), and the incubation was continued at 37° C. for 24 hours.

[3] = system: human nasopharynx cancer (KB cells); experiment: Inhibition of multiplication of human nasopharynx cancer (KB cells), MTT assay; format: cell-based; conditions: 72 hours
Protocol: as §1

breast cancer cells MM46 = experiment: Action against breast cancer cells MM46 in C3H mice; format: in vivo, murine (C3H mice); conditions: for Life-span prolongation ratio (T/C %): 0.20 mg/mouse once a day for 4 consecutive days, only related to mice which died; for No. of survivors/No. of mice tested: 0.20 mg/mouse once a day for 4 days, on the 60th day
Protocol: Action of the compounds obtained in Examples against breast cancer cells MM46
C3H mice (a group consisting of 5 mice) were inoculated intraperitoneally with 1×10^4 MM46 cells per mouse, and given 0.20 mg/mouse of compounds of Examples dissolved in physiological saline once a day for 4 consecutive days starting from the second day after the inoculation. Shown in Table 3 are the life-span prolongation ratio against the control group without treatment and the number of surviving mice on the 60th day after starting the test.

Sarcoma 180 cells = experiment: Antitumor effect against Sarcoma 180 cells in ICR mice; format: in vivo, murine (ICR mice); conditions: for Life-span prolongation ratio (T/C %): 0.33 mg/mouse i.p. 1 hour, 1 day and 2 days after inoculation, only related to mice which died; for Number of survivors/number of mice tested: 0.33 mg/mouse i.p. three times, on the 60th day
Protocol: Antitumor effect of compounds of Examples against Sarcoma 180 cells
ICR mice (a group consisting of 5 mice) were inoculated intraperitoneally with 1×10^5 Sarcoma 180 cells per mouse. Then, 0.33 mg/mouse of a compound dissolved in physiological saline was intraperitoneally administered three times, i.e. 1 hour, 1 day and 2 days after the inoculation. Shown in Table 4 are the life-span prolongation ratio against the control group without treatment and the number of surviving mice on the 60th day after the initiation of the test.

[4] = system: murine colon cancer (colon 26); experiment: Action against murine colon cancer (colon 26) in Balb/C mice; format: in vivo; conditions: 0.3 mg/mouse i.p., eight times; tumor weight after 14 days, against untreated control
Protocol: Action of the compound in Example against murine colon cancer (colon 26)
Balb/C mice (a group consisting of five mice) were inoculated subcutaneously at dorsolateral area with 2×10^5 murine colon cancer (colon 26l) cells, and then given intraperitoneally 0.3 mg/mouse of the compound dissolved in physiological saline, eight times, i.e. 1 day, 2 days, 5 days, 6 days, 8 days, 9 days, 12 days and 13 days after the inoculation. After 14 days, the tumor tissue was extirpated and the tumor weight was weighed. Shown in Table 2 is tumor growth inhibition ratio against the untreated control.

[5] = 50 mg/kg once i.p., after 7 days

Row | SMILES | No. of dead mice/No. of mice tested [1, 5] | No. of dead mice/No. of mice tested ([1]; mouse, in vivo) | IC50 [2] | IC50 [3] | Life-span prolongation ratio (T/C %) (breast cancer cells MM46) | No. of survivors/No. of mice tested (breast cancer cells MM46) | Life-span prolongation ratio (T/C %) (Sarcoma 180 cells) | Number of survivors/number of mice tested (Sarcoma 180 cells) | Growth inhibition ratio (1-T/C %) [4]
1 | CCCCCCCCCCCCCCCCCCOCC(CSCCCOCCCn1ccnc1)Oc1ncccn1 (stereo not drawn) [Ex. 12, N-[3-[3-[3-octadecyloxy-2-(pyrimidin-2-yloxy)propylthio]propoxy]propyl]imidazole] | 0/5 |  |  |  |  |  |  |  | 
2 | CCCCCCCCCCCCCCCCCCOCC(C[S+]([O-])CCOCC[n+]1ccccc1)Oc1ncccn1.[Cl-] (stereo not drawn) [Ex. 2, N-[2-[2-[3-octadecyloxy-2-(pyrimidin-2-yloxy)propylsulfinyl]ethoxy]ethyl]pyridinium chloride] |  | 0/5 | 0.16 µg/mL | 0.32 µg/mL | 150% | 2/5 |  |  | 
3 | CCCCCCCCCCCCCCCCCCOCC(CSCCOCC[n+]1ccn(CCCCCC(=O)[O-])c1)Oc1ncccn1 (stereo not drawn) [Ex. 9, 6-[3-[2-[2-[3-octadecyloxy-2-(pyrimidin-2-yloxy)propylthio]ethoxy]ethyl]imidazolio-1-yl]hexanoate] |  | 0/5 | 0.63 µg/mL (≈ 0.912 µM) | 0.32 µg/mL (≈ 0.463 µM) |  |  |  |  | 
4 | CCCCCCCCCCCCCCCCCCOCC(CS(=O)(=O)CCOCC[n+]1ccsc1)Oc1ncccn1 (stereo not drawn) [Ex. 19, 2-[2-[3-octadecyloxy-2-(pyrimidin-2-yl-oxy)propylsulfonyl]ethoxy]ethylthiazolium chloride] |  |  |  |  | 154% | 2/5 |  |  | 
5 | CCCCCCCCCCCCCCCCCCOCC(CSCCOCC[n+]1ccn(CCCC(=O)[O-])c1)Oc1ncccn1 (stereo not drawn) [Ex. 11, 4-[3-[2-[2-[3-octadecyloxy-2-(pyrimidin-2-yloxy)propylthio]ethoxy]ethyl]imidazolio-1-yl]butyrate] | 0/5 |  |  |  |  |  |  |  | 
6 | CCCCCCCCCCCCCCCCCCOCC(C[S+]([O-])CCOCC[n+]1cccc(CCCO)c1)Oc1ncccn1.[Cl-] (stereo not drawn) [Ex. 3, 3-(3-hydroxypropyl)-1-[2-[2-[3-octadecyloxy-2-(pyrimidin-2-yloxy)propylsulfinyl]ethoxy]-ethyl]pyridinium chloride] |  |  | 0.63 µg/mL | 0.16 µg/mL |  |  | 223% | 2/5 | 
7 | CCCCCCCCCCCCCCCCCCOCC(C[S+]([O-])CCOCC[n+]1ccsc1)Oc1ncccn1 (stereo not drawn) [Ex. 1, 2-[2-[3-octadecyloxy-2-(pyrimidin-2-yloxy)propylsulfinyl]ethoxy]ethylthiazolium chloride] |  | 0/5 | 1.25 µg/mL | 1.25 µg/mL | 147% | 4/5 | 235% | 2/5 | 48%
8 | CCCCCCCCCCCCCCCCCCOCC(C[S+]([O-])CCOCC[n+]1csc(CCO)c1C)Oc1ncccn1.[Cl-] (stereo not drawn) [Ex. 6, 5-(2-hydroxyethyl)-4-methyl-3-[2-[2-[3-octadecyloxy-2-(pyrimidin-2-yloxy)propylsulfinyl]ethoxy]-ethyl]thiazolium chloride] |  |  | 0.63 µg/mL | 0.32 µg/mL |  |  | 213% | 1/5 | 
9 | CCCCCCCCCCCCCCCCCCOCC(C[S+]([O-])CCOCC[N+](C)(C)C)Oc1ncccn1.[Cl-] (stereo not drawn) [Ex. 24, N-[2-[2-[3-octadecyloxy-2-(pyrimidin-2-yloxy)propylsulfinyl]ethoxy]ethyl]-N,N,N-trimethylammonium chloride] |  | 0/5 | 0.63 µg/mL | < 0.16 µg/mL |  |  | 195% | 1/5 | 
10 | CCCCCCCCCCCCCCCCCCOCC(CS(=O)(=O)CCOCC[N+](C)(C)C)Oc1ncccn1.[Cl-] (stereo not drawn) [Ex. 21, N-[2-[2-[3-octadecyloxy-2-(pyrimidin-2-yloxy)propylsulfonyl]ethoxy]ethyl]-N,N,N-trimethylammonium chloride] |  |  |  | 0.32 µg/mL | 144% | 2/5 |  |  | 
